From patent publication US20220202739A1, “ENDOCANNABINOID MIMETIC AND ANTI-INFLAMMATORY COMPOUND CONTAINING COMPOSITIONS, METHODS OF PREPARATION AND USES THEREOF” (priority 2019, published 2022)
Where two headings read alike, the source gives them in different places.

Legend:
TRPA1 = assay: Gene expression custom microarray, human skin fibroblasts (Example 1): TRPA1; assay type: cell-based; conditions: for fold induction at 10 µM: Skin fibroblast, read-out: TRPA1↑ gene expression, fold increase or decrease vs untreated cells
From the text: (§1) Cell cultures: A human skin fibroblast cell culture (or cultures) was obtained through the Coriell Cell Repository from the National Institute on Aging Cell Repository (Camden, N.J.), or Promocell GmbH (Heidelberg, Germany). The initial culture was selected from the following cell lines: AG13066, AG11557, AG11796 or GM03651E. The cell lines were derived from donors as follows:
(§2) Experimental phase: When the appropriate quantity of cells had been grown, they were detached as described above, but at the final step were seeded into each well of one or more 6 well dishes. Each well received 2 ml of the cell suspension so they were seeded equally. The dishes were returned to the incubator until 85-95% confluency was reached.
(§3) It is at this stage that all wells were rinsed in PBS after aspirating the growth media. The compound(s) to be tested were previously mixed into a suitable solvent (e.g., DMSO or ethanol) that can be diluted to the desired concentration of test compound (10 μl) in the culture wells without exceeding maximum solvent concentrations and adversely effecting cell viability, and mixed with basal media. NOTE: Standard maximum levels of solvent are 0.1% for DMSO and 0.5% for ETOH. The concentration of each test compound is found in Tables 1 & 2.
(§4) Every 2 wells on the 6 well plate served as a biological replicate for the purposes of RNA isolation and genetic expression evaluations making each 6 well dish an n=3 for the test compound(s) contained in the media. Negative control plates (no test compound(s) and only basal media) were also generated. The plates were returned to the incubator for 24 hrs.
(§5) At the end of the 24 hr time period, the plates were removed from the incubator, the test media aspirated, and the cells rinsed with PBS. RNA isolation is performed using the BioRad Aurum Total RNA Mini Kit (Hercules, Calif.) per manufacturer's protocol; which is described, in brief, below: • Add 350 μl of lysis buffer to each well. Pipet multiple times to ensure thorough lysis. Add lysed cells to the collection tube. • Add 350 μl of 70% ETOH to the collection tube and mix thoroughly. • Pipet the generated lysate onto the spin column placed in a new 2 ml tube. Centrifuge for 30 sec between 8,000 and 10,000 g. • Place the spin column containing the now bound RNA, in a new 2 ml tube. Add 700 μl of low stringency wash solution to the spin column. Centrifuge for 30 sec between 8,000 and 10,000 g. Discard the flow through and replace spin column. • Add 80 μl of DNase I dilution to the spin column and incubate at room temperature for 15 minutes. • Add 700 μl of high stringency wash solution to the column and centrifuge for 30 sec between 8,000 and 10,000 g. Discard flow through. • Add 700 μl of low stringency wash solution to the column and centrifuge for 60 sec between 8,000 and 10,000 g. Discard flow through. • Centrifuge for 2 minutes to remove residual wash solution. • Transfer spin column to new 1.5 ml collection tube and add 80 μl of elution solution to the column. Allow 1 minute for saturation of the membrane and then centrifuge for 2 minutes to complete the RNA elution. • Quantify the quantity of RNA and store at −20 C° until use (no more than 1 month)
(§6) The genes tested were: • Cannabinoid receptor 1 (CB1(CNR1)) • Cannabinoid receptor 2 (CB2 (CNR2)) • Fatty acid amide hydrolase (FAAH) • Monoacylglycerol lipase (MGLL, i.e., MAGL) • Peroxisome proliferator-activated receptor gamma (PPARG) • Nuclear factor kappa-light-chain-enhancer of activated B cells (NFκβ) • Interleukin 1 Alpha (IL1alpha) • Cyclooxygenase 1 (PTGS1, i.e., COX1) • Transient receptor potential cation channel subfamily A member 1 (TRPA1) • Transient receptor potential cation channel subfamily V member 1 (TRPV1) • Transient receptor potential cation channel subfamily M member 8 (TRPM8) • Hemoglobin Subunit Beta (HBB) REFERENCE GENE • Ribosomal Protein L13a (RPL13A) REFERENCE GENE […]

IL1A = assay: Gene expression custom microarray, human skin fibroblasts (Example 1): IL1A; assay type: cell-based; conditions: 24 hr; for fold induction at 10 µM: Skin fibroblast, read-out: IL1A↓ gene expression, fold increase or decrease vs untreated cells
From the text: as §1, §2, §3, §4, §5, §6

[1] = human skin fibroblasts, 10 uM, 24 hr

SMILES	fold induction at 10 µM (TRPA1; Homo sapiens, 24 h)	fold induction at 10 µM (IL1A)	TRPA1↑ gene expression, fold increase or decrease vs untreated cells (TRPA1; [1]) [fold]	IL1A↓ gene expression, fold increase or decrease vs untreated cells (IL1A; 10 uM) [fold]	fold induction at 10 µM (TRPA1; [1])
C=C(C)[C@@H]1CCC(C)=C[C@H]1c1c(O)cc(CCCCC)cc1O [CBD, cannabidiol, reference compound]	2.7	20.5	–	–	–
CCCCCCCCCCCCCCCC(=O)NCCO [N-palmitoylethanolamide]	–	–	8.2	−1.2	–
CC(C)[C@]12O[C@H]1[C@@H]1O[C@]13[C@]1(O[C@H]1C[C@H]1C4=C(CC[C@@]13C)C(=O)OC4)[C@@H]2O [Triptolide]	–	15.5	–	–	26.1
